ChEMBL document CHEMBL5154798, “Structure-based discovery of receptor tyrosine kinase AXL degraders with excellent anti-tumor activity by selectively degrading AXL and inducing methuosis” (Eur J Med Chem, 2022)
Calls of active or inactive are those of the source. The rule behind the calls is not given here.

How the values were obtained:
[1] = Systemic toxicity in female BALB/c nude mouse xenografted with human MDA-MB-231 cells assessed as inflammatory cell infiltration in heart at 25 mg/kg, ip; type: organism-based; conditions: in vivo
[2] = test system: MDA-MB-231; assay: Induction of cytoplasmic vacuolation in human MDA-MB-231 cells at 1 uM in presence of 1 uM pan-caspase inhibitor Z-VAD-FMK; type: functional, cell-based
[3] = Systemic toxicity in female BALB/c nude mouse xenografted with human MDA-MB-231 cells assessed as inflammatory cell infiltration in lung at 25 mg/kg, ip; type: organism-based; conditions: in vivo
[4] = Systemic toxicity in female BALB/c nude mouse xenografted with human MDA-MB-231 cells assessed as necrosis of kidney tissue at 25 mg/kg, ip; type: organism-based; conditions: in vivo
[5] = Systemic toxicity in female BALB/c nude mouse xenografted with human MDA-MB-231 cells assessed as inflammatory cell infiltration in spleen at 25 mg/kg, ip; type: organism-based; conditions: in vivo
[6] = test system: MDA-MB-231; assay: Antitumor activity against human MDA-MB-231 cells xenografted in female BALB/c nude mouse assessed as tumor growth inhibition at 25 mg/kg, ip; type: functional, organism-based
[7] = Cytotoxicity against human GES1 cells after 72 hrs by MTT assay; type: toxicity, cell-based
[8] = test system: MDA-MB-231; assay: Induction of cytoplasmic vacuolation in human MDA-MB-231 cells at 0.5 uM; type: functional, cell-based
[9] = test system: MDA-MB-231; assay: Induction of macropinocytosis in human MDA-MB-231 cells measured by LysoTracker staining based fluorescence microscopy; type: functional, cell-based
[10] = Clearance in male Sprague-Dawley rat at 2 mg/kg, iv administered as single dose measured by LC/MS/MS analysis; type: ADME, organism-based; conditions: male, Sprague-Dawley, in vivo
[11] = Systemic toxicity in female BALB/c nude mouse xenografted with human MDA-MB-231 cells assessed as inflammatory cell infiltration in kidney at 25 mg/kg, ip; type: organism-based; conditions: in vivo
[12] = Systemic toxicity in female BALB/c nude mouse xenografted with human MDA-MB-231 cells assessed as necrosis of heart tissue at 25 mg/kg, ip; type: organism-based; conditions: in vivo
[13] = Systemic toxicity in female BALB/c nude mouse xenografted with human MDA-MB-231 cells assessed as necrosis of liver tissue at 25 mg/kg, ip; type: organism-based; conditions: in vivo
[14] = test system: Mus musculus; assay: In vivo induction of CRBN-mediated AXL degradation in mouse measured after 6 hrs; type: functional, organism-based
[15] = Tmax in male Sprague-Dawley rat at 20 mg/kg, po administered as single dose measured by LC/MS/MS analysis; type: ADME, organism-based; conditions: in vivo
[16] = test system: MDA-MB-231; assay: Induction of macropinocytosis in human MDA-MB-231 cells assessed as co-localization of LAMP-1 with lucifer yellow measured by immunofluorescence assay; type: functional, cell-based
[17] = AUC (0 to t) in male Sprague-Dawley rat at 20 mg/kg, po administered as single dose measured by LC/MS/MS analysis; type: ADME, organism-based; set-up: dose 20 mg/kg, route po; conditions: in vivo
[18] = Cytotoxicity against human MCF-10A cells after 72 hrs by MTT assay; type: toxicity, cell-based
[19] = test system: MDA-MB-231; assay: Antiproliferative activity against human MDA-MB-231 cells highly expressing AXL after 72 hrs by MTT assay; conditions: MDA-MB-231, 72 h
[20] = Half-life in male Sprague-Dawley rat at 20 mg/kg, po administered as single dose measured by LC/MS/MS analysis; type: ADME, organism-based; conditions: in vivo
[21] = test system: MDA-MB-231; assay: Induction of macropinocytosis in human MDA-MB-231 cells measured by MitoTracker staining based fluorescence microscopy; type: functional, cell-based
[22] = AUC (0 to t) in male Sprague-Dawley rat at 2 mg/kg, iv administered as single dose measured by LC/MS/MS analysis; type: ADME, organism-based; set-up: dose 2 mg/kg, route iv; conditions: in vivo
[23] = Systemic toxicity in female BALB/c nude mouse xenografted with human MDA-MB-231 cells assessed as necrosis of lung tissue at 25 mg/kg, ip; type: organism-based; conditions: in vivo
[24] = test system: 4T1; assay: Antiproliferative activity against mouse 4T1 cells highly expressing AXL after 72 hrs by MTT assay; conditions: 4T1, 72 h
[25] = Oral bioavailability in male Sprague-Dawley rat at 20 mg/kg administered as single dose measured by LC/MS/MS analysis; type: ADME, organism-based; conditions: in vivo
[26] = test system: 4T1; assay: Induction of cytoplasmic vacuolation in mouse 4T1 cells at 0.5 uM; type: functional, cell-based
[27] = Tmax in male Sprague-Dawley rat at 2 mg/kg, iv administered as single dose measured by LC/MS/MS analysis; type: ADME, organism-based; conditions: in vivo
[28] = Half-life in male Sprague-Dawley rat at 2 mg/kg, iv administered as single dose measured by LC/MS/MS analysis; type: ADME, organism-based; conditions: in vivo
[29] = test system: MDA-MB-231; assay: Induction of macropinocytosis in human MDA-MB-231 cells assessed as co-localization of Rab7 with lucifer yellow measured by immunofluorescence assay; type: functional, cell-based
[30] = Toxicity in female BALB/c nude mouse xenografted with human MDA-MB-231 cells assessed as change in body wieght at 25 mg/kg, ip; type: organism-based; conditions: in vivo
[31] = Cmax in male Sprague-Dawley rat at 20 mg/kg, po administered as single dose measured by LC/MS/MS analysis; type: ADME, organism-based; set-up: dose 20 mg/kg, route po; conditions: in vivo
[32] = Systemic toxicity in female BALB/c nude mouse xenografted with human MDA-MB-231 cells assessed as inflammatory cell infiltration in liver at 25 mg/kg, ip; type: organism-based; conditions: in vivo
[33] = Cmax in male Sprague-Dawley rat at 2 mg/kg, iv administered as single dose measured by LC/MS/MS analysis; type: ADME, organism-based; set-up: dose 2 mg/kg, route iv; conditions: in vivo
[34] = Systemic toxicity in female BALB/c nude mouse xenografted with human MDA-MB-231 cells assessed as necrosis of spleen tissue at 25 mg/kg, ip; type: organism-based; conditions: in vivo

- clearance [10]: 11.3 mL/min/kg
- Tmax [15]: 1.89 h
- AUC(0-t) [17]: 865 ng·h/mL
- IC50 [19]: 10.3 µM
- half-life [20]: 2.37 h
- AUCt [22]: 2933.4 ng·h/mL
- IC50 [24]: 5.53 µM
- bioavailability [25]: 4.93%
- Tmax [27]: 0.54 h
- t1/2 [28]: 0.72 h
- Cmax [31]: 92 ng/mL
- Cmax [33]: 166 ng/mL
Structure (SMILES): Nc1nc(Nc2ccc(CNC(=O)CCCCCCCNc3cccc4c3CN(C3CCC(=O)NC3=O)C4=O)cc2)nn1-c1ccc(-c2ccccc2)nn1 (centres undefined)
- Activity [1]: Non-Toxic
- Activity [2]: Active
- Activity [3]: Non-Toxic
- Activity [4]: Non-Toxic
- Activity [5]: Non-Toxic
- TGI [6]: Active
- IC50 at 72 h [7]: > 60 µM
- Activity [8]: Active
- Activity [9]: Active
- Activity [11]: Non-Toxic
- Activity [12]: Non-Toxic
- Activity [13]: Non-Toxic
- Activity [14]: Active
- Activity [16]: Active
- IC50 at 72 h [18]: > 60 µM
- Activity [21]: Active
- Activity [23]: Non-Toxic
- Activity [26]: Active
- Activity [29]: Active
- Activity [30]: Non-Toxic
- Activity [32]: Non-Toxic
- Activity [34]: Non-Toxic
